# Key:
# Puccinia recondita [1] = assay: Curative control of brown rust on wheat (glass house trial); type: in vivo, Puccinia recondita on wheat; conditions: 63 ppm active compound, sprayed after inoculation, assessed after 8 days; untreated plants 90%
# Description: (§1) The spray solutions were prepared in several steps: the stock solutions were prepared: a mixture of acetone and/or dimethylsulfoxide and the wetting agent/emulsifier Wettol, which is based on ethoxylated alkylphenoles, in a relation (volume) solvent-emulsifier of 99 to 1 was added to 25 mg of the compound to give a total of 5 ml. Water was then added to total volume of 100 ml. This stock solution was diluted with the described solvent-emulsifier-water mixture to the given concentration.
# The first two developed leaves of pot-grown wheat seedling were dusted with spores of Puccinia recondita. To ensure the success the artificial inoculation, the plants were transferred to a humid chamber without light and a relative humidity of 95 to 99% and 20 to 24° C. for 24 hours. The next day the plants were cultivated for 3 days in a greenhouse chamber at 20 to 24° C. and a relative humidity between 65 and 70%. Then the plants were sprayed to run-off with an aqueous suspension, containing the concentration of active ingredient or their mixture as described below. The plants were allowed to air-dry. Then the trial plants were cultivated for 8 days in a greenhouse chamber at 20 to 24° C. and a relative humidity between 65 and 70%. The extent of fungal attack on the leaves was visually assessed as % diseased leaf area.
# Puccinia recondita [2] = assay: Preventative control of brown rust on wheat (glass house trial); type: in vivo, Puccinia recondita on wheat; conditions: 63 ppm active compound, sprayed 1 day before inoculation, assessed after 6 days; untreated plants 90%
# Description: as §1
# The first two developed leaves of pot-grown wheat seedling were sprayed to run-off with an aqueous suspension, containing the concentration of active ingredient or their mixture as described below. The next day the plants were inoculated with spores of Puccinia recondita. To ensure the success the artificial inoculation, the plants were transferred to a humid chamber without light and a relative humidity of 95 to 99% and 20 to 24° C. for 24 hours. Then the trial plants were cultivated for 6 days in a greenhouse chamber at 20 to 24° C. and a relative humidity between 65 and 70%. The extent of fungal attack on the leaves was visually assessed as % diseased leaf area.
smiles,measurement,setting,value
"CC(=O)NC1(c2ccc(-c3noc(C(F)(F)F)n3)cc2)CC1 [Ex-2, N-[1-[4-[5-(trifluoromethyl)-1,2,4-oxadiazol-3-yl]phenyl]-cyclopropyl]acetamide]",diseased leaf area,Puccinia recondita [1],1%
same,diseased leaf area,Puccinia recondita [2],2%
